Results: US20170319570A1, “Treatment of Multiple Sclerosis With Combination of Laquinimod and Dimethyl Fumarate” (Teva Pharmaceutical Industries, Ltd., priority 2012, published 2017)

What was measured:
MOG-induced EAE = test: MOG-induced EAE, laquinimod alone or with add on DMF (Example 1A); assay type: in vivo, mouse; settings: oral QD
MOG peptide induced EAE = settings: cited from earlier work
RRMS patients = settings: Phase 2B trial; cited from earlier work
MOG induced EAE = test: MOG-induced EAE, laquinimod in combination with DMF (Example 1B); assay type: in vivo, mouse; settings: Day 1 to 30, dead or moribund/total
[1] = in vivo; cited from earlier work

SMILES: COC(=O)/C=C/C(=O)OC [DMF, Dimethyl (E)-but-2-Enedioate]
- effectiveness on disease severity (MOG-induced EAE): moderately effective
- plasma levels of IL-10 (MOG peptide induced EAE; MOG peptide induced EAE): increased
- glial inflammation (MOG peptide induced EAE; during MOG peptide induced EAE): reduced
- annualized relapse rate (RRMS patients): non-significant decrease
- new gadolinium enhancing lesions, T1 and T2 lesions (RRMS patients): significant decreases

SMILES: CCN(C(=O)c1c(O)c2c(Cl)cccc2n(C)c1=O)c1ccccc1 [Laquinimod]
- Mortality (MOG induced EAE; Group 2: laquinimod 5 mg/kg/day gavage qd): 0/15
- Mortality (MOG induced EAE; Group 3: laquinimod 10 mg/kg/day gavage qd): 0/15
- Mortality (MOG induced EAE; Group 4: laquinimod 25 mg/kg/day gavage qd): 0/15
- effectiveness on disease severity (MOG-induced EAE; 0.06 mg/kg laquinimod alone): moderately effective
- oral bioavailability [1]: high
